The source of these data is PubChem BioAssay (NCI).

Molecules are shown by their SMILES.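 In this assay, cells in 96-well plates receive the compound at five concentrations for 48 hours. Endpoints are linearly interpolated between the surrounding concentrations. GI50: concentration for 50% inhibition of growth. The concentration for full growth arrest is given as TGI.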

Test systems include MCF7 breast; NCI-H522 lung; SNB-19 CNS; 786-0 renal; IGROV1 ovarian; A498 renal; RPMI-8226 leukemia; HCT-116 colon; MDA-MB-231 breast; SK-MEL-28 melanoma.
Test in all cases: NCI tumour cell line growth inhibition, 48 h

For the compound `COc1ccc2c(ccc3oc([N+](=O)[O-])cc32)c1`, the GI50 is 0.176 µM in the assay on MCF7 breast; 0.0952 µM in the assay with NCI-H522 lung; 0.294 µM in the assay with SNB-19 CNS; 0.218 µM in the assay with 786-0 renal; 0.199 µM in the assay on IGROV1 ovarian; 0.0852 µM in the assay with A498 renal. Also, the GI50 with RPMI-8226 leukemia was 0.247 µM; in the assay with HCT-116 colon, 0.0487 µM; in the assay with MDA-MB-231 breast, 0.167 µM; in the assay on SK-MEL-28 melanoma, 0.118 µM. Also, the TGI stood at 3 µM in the assay with MCF7 breast; 0.319 µM with NCI-H522 lung; 2.96 µM in the assay with SNB-19 CNS; 0.667 µM with 786-0 renal; 3.47 µM with IGROV1 ovarian; 0.305 µM with A498 renal. Further, the TGI in the assay on RPMI-8226 leukemia turned out to be 0.81 µM; in the assay on HCT-116 colon it was 0.92 µM; with MDA-MB-231 breast, 0.596 µM; in the assay on SK-MEL-28 melanoma it was 0.323 µM.

Take `COc1cc(NC(=O)c2cc3ccccc3cc2O)c(OC)cc1Cl`: the GI50 is 1.93 µM in the assay with MCF7 breast; 1.89 µM with NCI-H522 lung; 2.53 µM in the assay on SNB-19 CNS; 2.86 µM in the assay with 786-0 renal; 0.0776 µM in the assay with IGROV1 ovarian; 1.96 µM in the assay on A498 renal. The GI50 with RPMI-8226 leukemia was 0.153 µM; with HCT-116 colon, 2.48 µM; in the assay with MDA-MB-231 breast, 1.57 µM; in the assay on SK-MEL-28 melanoma, 2.86 µM. Further, the TGI in the assay on MCF7 breast is 7.13 µM; in the assay with NCI-H522 lung, 9.41 µM; in the assay on SNB-19 CNS it was 8.21 µM; in the assay with 786-0 renal it was 9.18 µM; in the assay with IGROV1 ovarian, 15.4 µM; with A498 renal it was 5.04 µM. Further, the TGI with RPMI-8226 leukemia is 1.18 µM; in the assay with HCT-116 colon, 11.1 µM; in the assay with MDA-MB-231 breast it was 4.79 µM; with SK-MEL-28 melanoma, 10.7 µM.

Regarding `COC(=O)C1OC(SCCN)C(O)C(O)C1O` (stereo not given), the TGI in the assay with MCF7 breast, with NCI-H522 lung, in the assay with SNB-19 CNS, with 786-0 renal, in the assay with IGROV1 ovarian and in the assay with A498 renal was over 100 µM throughout. The TGI in the assay on RPMI-8226 leukemia, in the assay with HCT-116 colon, with MDA-MB-231 breast and in the assay on SK-MEL-28 melanoma was over 100 µM throughout.

Turning to `NC1=CC(=O)C(=O)c2ccccc21`, the GI50 in the assay with MCF7 breast is 13.2 µM; with NCI-H522 lung it was 16.6 µM; in the assay with SNB-19 CNS, 20.4 µM; with 786-0 renal it was 25 µM; with IGROV1 ovarian it was 19.7 µM; in the assay on A498 renal, 79.2 µM. The GI50 was 11.2 µM in the assay on RPMI-8226 leukemia, 12.7 µM with HCT-116 colon, 11 µM in the assay with MDA-MB-231 breast and 8.81 µM in the assay on SK-MEL-28 melanoma. The TGI was 29.8 µM with MCF7 breast; 38.2 µM with NCI-H522 lung; 79.9 µM with SNB-19 CNS; 79.8 µM in the assay on 786-0 renal; 39.5 µM in the assay on IGROV1 ovarian; over 100 µM in the assay on A498 renal. Further, the TGI in the assay on RPMI-8226 leukemia was 53.2 µM; with HCT-116 colon it was 28 µM; in the assay with MDA-MB-231 breast it was 30.9 µM; in the assay with SK-MEL-28 melanoma it was 22.3 µM.

For the compound `N#Cc1cc2c(=S)[nH]c(=S)[nH]c2nc1SCc1ccccc1`, the GI50 was 50.6 µM in the assay on MCF7 breast; over 100 µM in the assay on NCI-H522 lung; over 100 µM in the assay on SNB-19 CNS; 28.1 µM in the assay with 786-0 renal; 55.8 µM in the assay on IGROV1 ovarian; 39.9 µM in the assay on A498 renal. The GI50 in the assay on RPMI-8226 leukemia is 26.4 µM; in the assay with HCT-116 colon it was 29.8 µM; with MDA-MB-231 breast it was 21.7 µM; in the assay with SK-MEL-28 melanoma, 69.7 µM. Besides, the TGI in the assay with MCF7 breast, in the assay with NCI-H522 lung, in the assay with SNB-19 CNS, in the assay on 786-0 renal, with IGROV1 ovarian and in the assay with A498 renal was over 100 µM throughout. For the same compound, the TGI was over 100 µM with RPMI-8226 leukemia, over 100 µM in the assay with HCT-116 colon, 87.4 µM in the assay on MDA-MB-231 breast and over 100 µM in the assay with SK-MEL-28 melanoma.

Turning to `C=C(C)[C@@H]1CC[C@]2(COC(=O)c3ccccc3C(=O)O)CC[C@]3(C)[C@H](CC[C@@H]4[C@@]5(C)CC[C@H](OC(=O)c6ccccc6C(=O)O)C(C)(C)[C@@H]5CC[C@]43C)[C@@H]12`, the GI50 was over 100 µM with MCF7 breast; 22.8 µM with NCI-H522 lung; 23.2 µM with SNB-19 CNS; 31.6 µM in the assay on 786-0 renal; 33.2 µM in the assay on IGROV1 ovarian; 40.6 µM in the assay on A498 renal. Also, the GI50 in the assay on RPMI-8226 leukemia was 14.8 µM; with HCT-116 colon it was 33.1 µM; in the assay on MDA-MB-231 breast it was 25 µM; with SK-MEL-28 melanoma, 95.5 µM. Further, the TGI with MCF7 breast is over 100 µM; in the assay on NCI-H522 lung, 96.9 µM; in the assay with SNB-19 CNS it was over 100 µM; in the assay on 786-0 renal it was over 100 µM; with IGROV1 ovarian it was over 100 µM; in the assay on A498 renal it was over 100 µM. For the same compound, the TGI was over 100 µM in the assay with RPMI-8226 leukemia, over 100 µM in the assay on HCT-116 colon, 69.3 µM with MDA-MB-231 breast and over 100 µM with SK-MEL-28 melanoma.

As for `COc1ccc(/C=N/C2=NNC(C)(c3ccccc3O)N2C(Cc2c[nH]c3ccccc23)C(=O)O)cc1` (stereo not given), the GI50 with MCF7 breast is 2.23 µM; in the assay on NCI-H522 lung it was 2.49 µM; in the assay on SNB-19 CNS, 3.76 µM; in the assay with 786-0 renal it was 3.36 µM; with IGROV1 ovarian it was 1.72 µM; in the assay with A498 renal, 3.1 µM. The GI50 in the assay on RPMI-8226 leukemia was 2.14 µM; in the assay with HCT-116 colon, 2.52 µM; with MDA-MB-231 breast it was 1.89 µM; in the assay with SK-MEL-28 melanoma it was 2.67 µM. Moreover, the TGI was found to be 10.9 µM in the assay on MCF7 breast; 10 µM in the assay on NCI-H522 lung; 14.6 µM in the assay on SNB-19 CNS; 13 µM in the assay with 786-0 renal; 9.5 µM in the assay on IGROV1 ovarian; 9.03 µM in the assay with A498 renal. Moreover, the TGI in the assay with RPMI-8226 leukemia came out at 7.65 µM; with HCT-116 colon it was 10.2 µM; in the assay with MDA-MB-231 breast it was 8.89 µM; with SK-MEL-28 melanoma, 8.41 µM.

Regarding `COc1cc2c3c(n(CCCN=[N+]=[N-])c(=O)c2cc1OC)-c1ccc(NC(C)=O)cc1C3=O`, the GI50 is over 50 µM in the assay on MCF7 breast; over 50 µM in the assay with NCI-H522 lung; over 50 µM in the assay with SNB-19 CNS; over 50 µM in the assay on 786-0 renal; 47.3 µM with IGROV1 ovarian; over 50 µM with A498 renal. The GI50 in the assay with RPMI-8226 leukemia, with HCT-116 colon, with MDA-MB-231 breast and in the assay with SK-MEL-28 melanoma was over 50 µM each time. The TGI in the assay on MCF7 breast, with NCI-H522 lung, with SNB-19 CNS, in the assay with 786-0 renal, in the assay with IGROV1 ovarian and in the assay with A498 renal was over 50 µM in each case. Moreover, the TGI in the assay on RPMI-8226 leukemia, with HCT-116 colon, in the assay on MDA-MB-231 breast and in the assay on SK-MEL-28 melanoma was over 50 µM in each case.
